Measurements reported in US9193729B2, “Inhibiting transient receptor potential ion channel TRPA1” (Cubist Pharmaceuticals, Inc., priority 2011, dated 2015).

Experiments:
hTRPV3 = molecular target: T1, hTRPV3 (Homo sapiens, UniProt Q8NET8); assay: Patch clamp selectivity, hTRPV3; assay type: cell-based; details: hTRPV3 vs TRPA1
T1 sequence (Q8NET8 1-790): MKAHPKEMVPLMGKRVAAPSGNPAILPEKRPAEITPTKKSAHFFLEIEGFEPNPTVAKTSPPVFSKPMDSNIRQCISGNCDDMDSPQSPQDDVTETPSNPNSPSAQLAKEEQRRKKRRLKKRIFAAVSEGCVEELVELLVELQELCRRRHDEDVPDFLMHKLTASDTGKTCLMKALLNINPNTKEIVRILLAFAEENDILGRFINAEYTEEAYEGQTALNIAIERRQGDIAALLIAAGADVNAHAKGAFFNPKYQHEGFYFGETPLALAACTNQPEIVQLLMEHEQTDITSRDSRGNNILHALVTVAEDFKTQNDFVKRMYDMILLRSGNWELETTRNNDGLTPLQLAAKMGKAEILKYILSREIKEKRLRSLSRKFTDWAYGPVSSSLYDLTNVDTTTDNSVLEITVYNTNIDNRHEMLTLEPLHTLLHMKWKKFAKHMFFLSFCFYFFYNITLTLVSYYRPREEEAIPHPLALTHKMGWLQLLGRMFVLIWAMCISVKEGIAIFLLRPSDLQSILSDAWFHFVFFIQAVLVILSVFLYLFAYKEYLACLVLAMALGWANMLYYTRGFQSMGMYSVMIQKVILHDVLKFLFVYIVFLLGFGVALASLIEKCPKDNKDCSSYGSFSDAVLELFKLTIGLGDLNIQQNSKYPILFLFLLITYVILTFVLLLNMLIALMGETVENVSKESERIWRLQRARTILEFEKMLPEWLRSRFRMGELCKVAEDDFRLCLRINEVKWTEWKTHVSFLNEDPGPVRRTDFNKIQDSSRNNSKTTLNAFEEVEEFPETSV
Description: (§1) Data for TRPA1 inhibition and the selectivity of TRPA1 inhibition was obtained by this method for the compound of Formula (Ia) and included in Table 1 and Table 2. All currents were recorded in whole-cell configuration using EPC-9 and EPC-10 amplifiers and Patchmaster software (HEKA). […] The standard pipette solution consisted of 140 mM CsAsp, 10 mM EGTA, 10 mM HEPES, 2.27 mM MgCl2, 1.91 mM CaCl2, 4 mM MgATP, and 0.1-0.3 mM Na2GTP, with pH adjusted to 7.2 with CsOH. In addition, a solution containing 145 mM CsCl, 10 mM HEPES, 10 mM EGTA and 1 mM MgCl2 (pH 7.2 adjusted with CsOH) can be used. The standard bath solution contained 150 mM NaCl, 10 mM HEPES, 10 mM glucose, 4.5 mM KCl, 1 mM EGTA, 3 mM MgCl2, with pH adjusted to 7.4 with NaOH. In some instances, 2 mM CaCl2 was added in place of EGTA and the concentration of MgCl2 was reduced to 1 mM.
(§2) Data were collected either by continuous recordings at −60 mV or by applying voltage ramps from a holding potential of 0 mV every 4 s. […] Inward and outward currents were analyzed from the ramps at −80 and 80 mV, respectively. […]
(§3) Solutions were switched using a gravity-fed continuous focal perfusion system. […] Temperatures were confirmed using a thermistor (Warner Instruments, TA-29), with temperatures at the recorded cell estimated to be within +/−2° C. of those reported. […]

hTRPC5 = molecular target: T2, hTRPC5 (Homo sapiens, UniProt Q9UL62); assay: Patch clamp selectivity, hTRPC5; assay type: cell-based; details: hTRPC5 vs TRPA1
T2 sequence (Q9UL62 1-973): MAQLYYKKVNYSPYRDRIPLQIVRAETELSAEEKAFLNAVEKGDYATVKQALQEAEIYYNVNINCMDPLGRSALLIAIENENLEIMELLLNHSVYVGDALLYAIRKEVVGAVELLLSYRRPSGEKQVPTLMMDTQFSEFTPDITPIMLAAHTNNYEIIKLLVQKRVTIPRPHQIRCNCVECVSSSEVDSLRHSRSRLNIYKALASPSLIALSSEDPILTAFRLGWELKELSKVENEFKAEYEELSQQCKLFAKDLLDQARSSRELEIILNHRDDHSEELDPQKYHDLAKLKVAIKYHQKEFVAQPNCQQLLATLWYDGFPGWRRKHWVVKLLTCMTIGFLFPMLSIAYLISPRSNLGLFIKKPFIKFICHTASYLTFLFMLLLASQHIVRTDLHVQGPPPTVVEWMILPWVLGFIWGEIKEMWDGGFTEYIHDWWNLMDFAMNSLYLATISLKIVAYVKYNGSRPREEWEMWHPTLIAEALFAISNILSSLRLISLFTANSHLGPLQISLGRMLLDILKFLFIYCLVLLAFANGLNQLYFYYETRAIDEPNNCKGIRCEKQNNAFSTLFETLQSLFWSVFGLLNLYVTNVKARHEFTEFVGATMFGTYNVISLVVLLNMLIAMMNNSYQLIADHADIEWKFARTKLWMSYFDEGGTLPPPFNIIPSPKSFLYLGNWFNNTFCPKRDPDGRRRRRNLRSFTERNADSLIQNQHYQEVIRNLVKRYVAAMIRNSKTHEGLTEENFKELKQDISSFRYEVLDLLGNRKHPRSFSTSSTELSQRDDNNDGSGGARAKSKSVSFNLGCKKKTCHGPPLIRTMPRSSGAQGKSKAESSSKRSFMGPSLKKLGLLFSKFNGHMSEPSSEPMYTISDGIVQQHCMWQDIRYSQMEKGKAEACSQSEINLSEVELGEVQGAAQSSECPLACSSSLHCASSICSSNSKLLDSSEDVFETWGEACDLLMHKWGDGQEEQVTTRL
Description: as §1, §2, §3

Fold Selectivity Compared to TRPA1 (hTRPV3): >300 Fold | Fold Selectivity Compared to TRPA1 (hTRPC5): >100 Fold
Compound: C[C@H]1CCCN1c1ncc(-c2cccc(NC(=O)Cn3cnc4c3c(=O)n(C)c(=O)n4C)n2)cn1 [Formula (Ia)]
